Data taken from patent publication US7649002B2, “(3,5-dimethylpiperidin-1yl)(4-phenylpyrrolidin-3-yl)methanone derivatives as MCR4 agonists” (Pfizer Inc, priority 2004, dated 2010).
Counter-ions that a name gives are not always drawn. Like-named read-outs stand apart in the source and are kept apart here.

Molecular target: T1, human MCR4 receptor (Homo sapiens, UniProt P32245)
T1 construct: expressed in transfected cells
Assay: MCR4 improved functional assay (Protocol E): CHO-K1-MC4R-CRE-β-lactamase reporter
Type: cell-based
Excerpt: (ii) MCR5 Standard Functional Assay Methodology and MCR4 Improved Functional Assay Methodology [Assay Protocol D and E Respectively] […] These cell lines were engineered using protocols akin to those outlined by Zaccolo et al (Zaccolo, M., (2000) Nature, 2(1); 25-29). Compound-induced activation of the MCR5 or MCR4 receptors in these two cell lines stimulated the production, and intracellular accumulation, of the enzyme β-lactamase. The quantity of β-lactamase enzyme produced was directly proportional to the degree to which the test compound activated the MCR5 or MCR4 receptors present on these cells and was quantified using the P-lactamase gene reporter analysis kit that is commercially available from Invitrogen Life Technologies. An in-depth description of this technology and assay protocols are available from the Invitrogen web site (www.invitrogen.com). The protocol listed below provides a summary of that assay methodology. The quantity of β-lactamase enzyme produced by compound-induced activation of the MCR5 or MCR4 receptors expressed in these cell lines was quantified using a LjI Biosystems Analyst™ HT 96.384 plate reader set to excite at a wave length of 405 nm, and measure the energy emitted at wave lengths of 450 nm and 530 nm. Cellular responses were quantified by dividing the measured energy emitted at a wavelength of 450 nm by the measured energy emitted at a wavelength of 530 nm. […] CCF4-AM was dissolved in 100% DMSO to give a final solution concentration of 1 mM. This solution was termed Solution A. Probenecid was dissolved in 200 mM NaOH to give a final solution concentration of 200 mM. This solution was termed Solution D. Composition of the β-lactamase assay dye solution: for 1072 μL of assay dye solution combine: 12 μL of Solution A, 60 μL of Solution B, 925 μL of Solution C and 75 μL of Solution D. […] Cells were grown in T225 vent cap flasks containing 50 ml of growth medium and maintained in a cell incubator at a temperature of 37° C. and in an environment containing 5% CO2. The composition of the growth medium for the CHO-K1-MC5R-CRE-β-lactamase was 90% v/v DMEM supplemented with; Glutamax-1, 25 mM HEPES, 10% v/v foetal calf serum (FCS), 1 mM sodium pyruvate, 0.1 mM non essential amino acids and 800 μg/ml genetic in. For the CHO-K1-MC4R-CRE-β-lactamase this growth media was further supplemented with […] Zeocin. Cells were harvested when they reached 80-90% confluency by first removing the existing growth medium and then washing with PBS that had been pre-warmed to a temperature of 37° C. This PBS was then removed and 5 ml of cell dissociation fluid added to the flask. These cells were incubated for 5 minutes in a cell incubator set at a temperature of 37° C. and in an environment containing 5% CO2 to detach the cells. When cells were detached, pre-warmed growth media was added, the cells re-suspended and mixed gently to achieve a single cell suspension by pipetting. This cell suspension was then used for experimentation, or transferred into a new T225 flask to perpetuate the cell culture. […] For each assay the cell plates were then retuned to a cell incubator maintained at a temperature of 37° C. and in an environment containing 5% CO2 overnight before performing the assay on the second assay day. […] For the MCR4 improved functional assay methodology the solution of cyclohexamide was not added. Subsequently, 10 μL of the test compound solution was transferred to the assay plate. The assay plate was then transferred to a cell incubator, set at 37° C. and in an environment containing 5% CO2, and left for 4 hours for the MCR4 improved assay methodology, or 5 hours for the MCR5 standard assay methodology. After this incubation period the plate was removed from the incubator, 10 μL of the […] assay dye solution was added to each well and then the plate returned to the cell incubator.

[1] = Protocols C or E, read-out: functional potency at the MC4 receptor (EC50)

T1 sequence (P32245 whole entry): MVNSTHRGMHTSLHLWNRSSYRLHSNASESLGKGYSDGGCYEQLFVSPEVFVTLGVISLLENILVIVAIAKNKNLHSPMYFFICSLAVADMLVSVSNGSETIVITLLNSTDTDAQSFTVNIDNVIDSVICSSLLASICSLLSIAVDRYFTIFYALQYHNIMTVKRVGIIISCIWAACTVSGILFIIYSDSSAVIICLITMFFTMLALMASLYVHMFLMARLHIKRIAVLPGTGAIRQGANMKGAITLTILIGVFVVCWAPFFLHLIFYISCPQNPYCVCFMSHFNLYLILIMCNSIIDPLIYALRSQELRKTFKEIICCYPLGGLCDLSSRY

Compound | EC50 [1] [nM] | EC50 (Table 6, read-out: MCR4 EC50) [nM] | EC50 (functional potency at the MC4 receptor (EC50), Protocols C or E) [nM]
C[C@@H]1CN(C(=O)[C@@H]2CN(C(C)(C)C)C[C@H]2c2ccc(F)cc2F)C[C@H](C)[C@@]1(O)c1ccc(F)c(F)c1 [Example 8, (3R,4R,5S)-1-{[(3S,4R)-1-tert-Butyl-4-(2,4-difluorophenyl)pyrrolidin-3-yl]carbonyl}-4-(3,4-difluorophenyl)-3,5-dimethylpiperidin-4-ol hydrochloride] | < 10 |  | 
C[C@@H]1CN(C(=O)[C@@H]2CN(C(C)(C)C)C[C@H]2c2ccc(F)cc2F)C[C@H](C)[C@@]1(O)c1ccc(F)cc1 [Example 9, (3R,4R,5S)-1-{[(3S,4R)-1-tert-butyl-4-(2,4-difluorophenyl)pyrrolidin-3-yl]carbonyl}-4-(4-fluorophenyl)-3,5-dimethylpiperidin-4-ol hydrochloride] | < 10 |  | 
CC(C)N1C[C@@H](C(=O)N2C[C@@H](C)[C@](O)(c3ccc(F)cc3)[C@@H](C)C2)[C@H](c2ccc(F)cc2F)C1 [Example 10, (3R,4R,5S)-1-{[(3S,4R)-4-(2,4-difluorophenyl)-1-isopropylpyrrolidin-3-yl]carbonyl}-4-(4-fluorophenyl)-3,5-dimethylpiperidin-4-ol hydrochloride] | < 150 |  | 
CCN1C[C@@H](C(=O)N2C[C@@H](C)[C@](O)(c3ccc(OC)cc3)[C@@H](C)C2)[C@H](c2ccc(F)cc2F)C1 [Example 14, (3R,4R,5S)-1-{[(3S,4R)-4-(2,4-difluorophenyl)-1-ethylpyrrolidin-3-yl]carbonyl}-4-(4-methoxyphenyl)-3,5-dimethylpiperidin-4-ol hydrochloride] | < 150 |  | 
C[C@@H]1CN(C(=O)[C@@H]2CNC[C@H]2c2ccc(F)cc2F)C[C@H](C)[C@@]1(O)c1ccc(F)cc1F [Example 16, (3R,4R,5S)-4-(2,4-difluorophenyl)-1-{[(3S,4R)-4-(2,4-difluorophenyl)pyrrolidin-3-yl]carbonyl}-3,5-dimethylpiperidin-4-ol hydrochloride] | < 150 | 54 | 
C[C@@H]1CN(C(=O)[C@@H]2CN(C(C)(C)C)C[C@H]2c2ccc(F)cc2F)C[C@H](C)[C@@]1(O)c1c(F)cccc1F [Example 17, (3R,4R,5S)-1-[{(3S,4R)-1-tert-butyl-4-(2,4-difluorophenyl)pyrrolidin-3-yl]carbonyl}-4-(2,6-difluorophenyl)-3,5-dimethylpiperidin-4-ol hydrochloride] | < 50 |  | 
C[C@@H]1CN(C(=O)[C@@H]2CN(C(C)(C)C)C[C@H]2c2ccc(F)cc2F)C[C@H](C)[C@@]1(O)c1cccc(F)c1 [Example 19, (3R,4R,5S)-1-{[(3S,4R)-1-tert-butyl-4-(2,4-difluorophenyl)pyrrolidin-3-yl]carbonyl}-4-(3-fluorophenyl)-3,5-dimethylpiperidin-4-ol hydrochloride] |  |  | < 10
C[C@@H]1CN(C(=O)[C@@H]2CNC[C@H]2c2ccc(F)cc2F)C[C@H](C)[C@@]1(O)c1cccc(F)c1 [Example 20, (3R,4R,5S)-1-{[(3S,4R)-4-(2,4-difluorophenyl)pyrrolidin-3-yl]carbonyl}-4-(3-fluorophenyl)-3,5-dimethylpiperidin-4-ol hydrochloride] | < 150 |  | 
C[C@@H]1CN(C(=O)[C@@H]2CN(c3cnccn3)C[C@H]2c2ccc(F)cc2F)C[C@H](C)[C@@]1(O)c1ccccc1 [Example 33, (3R,4R,5S)-1-{[(3S,4R)-4-(2,4-Difluorophenyl)-1-pyrazin-2-ylpyrrolidin-3-yl]carbonyl}-3,5-dimethyl-4-phenylpiperidin-4-ol hydrochloride] | < 150 |  | 
C[C@@H]1CN(C(=O)[C@@H]2CN(c3cccnc3)C[C@H]2c2ccc(F)cc2F)C[C@H](C)[C@@]1(O)c1ccccc1 [Example 34, (3R,4R,5S)-1-{[(3S,4R)-4-(2,4-Difluorophenyl)-1-pyridin-3-ylpyrrolidin-3-yl]carbonyl}-3,5-dimethyl-4-phenylpiperidin-4-ol hydrochloride] | < 10 | 4 | 
C[C@@H]1CN(C(=O)[C@@H]2CN(c3cncnc3)C[C@H]2c2ccc(F)cc2F)C[C@H](C)[C@@]1(O)c1ccccc1 [Example 36, (3R,4R,5S)-1-{[(3S,4R)-4-(2,4-Difluorophenyl)-1-pyrimidin-5-ylpyrrolidin-3-yl]carbonyl}-3,5-dimethyl-4-phenylpiperidin-4-ol hydrochloride] | < 150 |  | 
CCC[C@@]1(O)[C@H](C)CN(C(=O)[C@@H]2CN(C(C)(C)C)C[C@H]2c2ccc(F)cc2F)C[C@@H]1C [Example 40, (3R,4R,5S)-1-{[(3S,4R)-1-tert-Butyl-4-(24-difluorophenyl)pyrrolidin-3-yl]carbonyl}-3,5-dimethyl-4-propylpiperidin-4-ol hydrochloride] | < 150 |  | 
C[C@@H]1CN(C(=O)[C@@H]2CN(c3ccncn3)C[C@H]2c2ccc(F)cc2F)C[C@H](C)[C@@]1(O)c1ccccc1 [Example 42, (3R,4R,5S)-1-{[(3S,4R)-4-(2,4-difluorophenyl)-1-pyrimidin-4-ylpyrrolidin-3-yl]carbonyl}-3,5-dimethyl-4-phenylpiperidin-4-ol hydrochloride] | < 10 |  | 
C[C@@H]1CN(C(=O)[C@@H]2CN(c3ccncn3)C[C@H]2c2ccc(F)cc2F)C[C@H](C)[C@@]1(O)c1ccccn1 [Example 44, (3R,4R,5S)-1-{[(3S,4R)-4-(2,4-difluorophenyl)-1-pyrimidin-4-ylpyrrolidin-3-yl]carbonyl}-3,5-dimethyl-4-pyridin-2-ylpiperidin-4-ol hydrochloride] | < 50 |  | 
C[C@@H]1CN(C(=O)[C@@H]2CN(c3cccnn3)C[C@H]2c2ccc(F)cc2F)C[C@H](C)[C@@]1(O)c1ccccn1 [Example 47, (3R,4R,5S)-1-{[(3S,4R)-4-(2,4-Difluorophenyl)-1-pyridazin-3-ylpyrrolidin-3-yl]carbonyl}-3,5-dimethyl-4-pyridin-2-ylpiperidin-4-ol hydrochloride] | < 10 |  | 
C[C@@H]1CN(C(=O)[C@@H]2CNC[C@H]2c2ccc(Cl)cc2)C[C@H](C)[C@@]1(O)c1ccccc1 [Example 48, (3R,4R,5S)-1-{[(3S,4R)-4-(4-Chlorophenyl)pyrrolidin-3-yl]carbonyl}-3,5-dimethyl-4-phenylpiperidin-4-ol hydrochloride] | < 150 |  | 
CC(C)N1C[C@@H](C(=O)N2C[C@@H](C)[C@](O)(c3ccc(Cl)cc3)[C@@H](C)C2)[C@H](c2ccc(F)cc2F)C1 [Example 50, (3R,4R,5S)-4-(4-chlorophenyl)-1-{[(3S,4R)-4-(2,4-difluorophenyl)-1-isopropylpyrrolidin-3-yl]carbonyl}-3,5-dimethylpiperidin-4-ol hydrochloride] | < 150 |  | 
CC(C)N1C[C@@H](C(=O)N2C[C@@H](C)[C@](O)(c3ccc(F)c(F)c3)[C@@H](C)C2)[C@H](c2ccc(F)cc2F)C1 [Example 51, (3R,4R,5S)-4-(3,4-difluorophenyl)-1-{[(3S,4R)-4-(2,4-difluorophenyl)-1-isopropylpyrrolidin-3-yl]carbonyl}-3,5-dimethylpiperidin-4-ol hydrochloride] | < 50 |  | 
CC(C)N1C[C@@H](C(=O)N2C[C@@H](C)[C@](O)(c3ccc(F)cc3F)[C@@H](C)C2)[C@H](c2ccc(F)cc2F)C1 [Example 52, (3R,4R,5S)-4-(2,4-difluorophenyl)-1-{[(3S,4R)-4-(2,4-difluorophenyl)-1-isopropylpyrrolidin-3-yl]carbonyl}-3,5-dimethylpiperidin-4-ol hydrochloride] | < 50 |  | 
